Source: patent US8901072B2, “Glycopeptide and lipoglycopeptide antibiotics with improved solubility” (The Medicines Company, priority 2009, dated 2014)
Converted amounts (≈) assume the structure as drawn.

Tests used:
[1] = Solubility in phosphate buffered saline; assay type: physicochemical; conditions: 10 mM phosphate buffered saline (0.138 M NaCl, 2.7 mM KCl), pH 7.4
Protocol: To a sample of the material of known mass were added known volumes of phosphate buffered saline until complete dissolution is observed. Suspensions were centrifuged for 5 min at 10000 rpm. […] Upon complete dissolution, the solution is diluted until the final concentration is 0.5 mg/mL to ensure that the material remains soluble over the entire range of concentrations.

[2] = system: S. aureus ATCC 13709; test: In vitro antibacterial susceptibility (MIC, broth microdilution); assay type: cell-based; conditions: for MIC against S. aureus ATCC 13709, CAMHB: cation-adjusted Mueller-Hinton broth, 37° C., 18 h; for Antibacterial activity compared with oritavancin 5: deduced from the MIC data of Table 2
Protocol: Susceptibility of S. aureus strain ATCC13709 to oritavancin (5) and synthesized compounds was determined following the guidelines set by the Clinical and Laboratory Standards Institute (formerly the National Committee for Clinical Laboratory Standards) (M26-A). Compounds were serially diluted two-fold in either DMSO (Oritavancin 5) or in PBS and transferred to cation-adjusted Mueller Hinton broth (CAMHB; Becton Dickinson). 50 μL of compounds diluted in CAMHB was mixed with 100 μL of bacteria diluted in CAMHB in 96-well microtiter plates. The final number of micro-organisms in the assay was 5×10^5 c.f.u. per mL and the final concentration of DMSO in the assay, if present, was 1.25%. All solutions may contain 0.002% Tween as indicated. Assays were set up in duplicate and incubated at 37° C. for 18 h. The concentration of compound that inhibited visible growth was reported as the minimum inhibitory concentration (MIC).

[3] = system: S. aureus strain ATCC13709; test: Neutropenic mouse thigh infection model; assay type: in vivo, mice
Protocol: The susceptibility of S. aureus strain ATCC13709 to oritavancin (5) and selected synthesized compounds in vivo was evaluated with the well accepted neutropenic mouse thigh infection model (Craig, W. A. et al. Journal of Antimicrobial Chemotherapy (1991), 27 (Suppl. C):29-40). Mice were made neutropenic by treatment with cyclophosphamide (150 and 100 mg/kg of body weight administered intraperitoneally 4 days and 1 day prior to infection). Mice were anesthetized briefly with approximately 4% isoflurane just prior to inoculation. The bacterial suspension (0.1 mL) was injected intramuscularly into each thigh (approximately 10^5 colony forming units (CFU)/thigh). The selected agents were administered in 10% (w/w) β-hydroxypropylcyclodextrin in water at a concentration of 10 mg/mL one hour following bacterial inoculation. The animals were humanely sacrificed by CO2 asphyxiation 24 h postinfection. The entire thigh muscle mass including the bone was homogenized and diluted in 0.9% saline and aliquots were plated on Brain-Heart Infusion agar. Following overnight incubation at 37° C., bacteria were enumerated for each thigh and expressed as log10 CFU per thigh. This was performed over three independent experiments and oritavancin (5) was used as a comparator in each.

| Compound | Solubility (mg/mL) PBS [1] | MIC against S. aureus ATCC 13709, CAMHB + 0.002% tween [2] | MIC against S. aureus ATCC 13709, CAMHB + 50% human serum [2] | MIC against S. aureus ATCC 13709, CAMHB + 50% mouse serum [2] | MIC against S. aureus ATCC 13709, CAMHB + 50% rat serum [2] | MIC against S. aureus ATCC 13709, CAMHB [2] | Antibacterial activity compared with oritavancin 5 [2] | In vivo antibacterial efficacy compared with oritavancin ([3]; deduced from the data of Table 3) | Recovered bacterial titers per thigh, 1 mg/kg ([3]; neutropenic mice, 1 mg/kg one hour after inoculation, 24 h postinfection) | Recovered bacterial titers per thigh, 10 mg/kg ([3]; neutropenic mice, 10 mg/kg one hour after inoculation, 24 h postinfection) | Recovered bacterial titers per thigh, 40 mg/kg ([3]; neutropenic mice, 40 mg/kg one hour after inoculation, 24 h postinfection) |
| --- | --- | --- | --- | --- | --- | --- | --- | --- | --- | --- | --- |
| CC(C)CC(C(=O)NC1C(=O)NC(CC(N)=O)C(=O)NC2C(=O)NC3C(=O)NC(C(=O)NC(C(=O)O)c4cc(O)cc(O)c4-c4cc3ccc4O)C(OC3CC(C)(NC(=O)OCOC(=O)C(N)CCCCN)C(O)C(C)O3)c3ccc(c(Cl)c3)Oc3cc2cc(c3OC2OC(CO)C(O)C(O)C2OC2CC(C)(NCc3ccc(-c4ccc(Cl)cc4)cc3)C(O)C(C)O2)Oc2ccc(cc2Cl)C1O)N(C)C(=O)OCOC(=O)C(N)CCCCN (stereo not drawn) [Compound 46] | <0.5 mg/mL | 0.25 µg/mL | 0.5 µg/mL | 1 µg/mL | 0.25 µg/mL | 1 µg/mL (≈ 0.455 µM) | within an order of magnitude of that of oritavancin 5 |  |  |  |  |
| CC(C)CC(C(=O)NC1C(=O)NC(CC(N)=O)C(=O)NC2C(=O)NC3C(=O)NC(C(=O)NC(C(=O)O)c4cc(O)cc(O)c4-c4cc3ccc4O)C(OC3CC(C)(N)C(O)C(C)O3)c3ccc(c(Cl)c3)Oc3cc2cc(c3OC2OC(CO)C(O)C(O)C2OC2CC(C)(NCc3ccc(-c4ccc(Cl)cc4)cc3)C(O)C(C)O2)Oc2ccc(cc2Cl)C1O)N(C)C(=O)OCOC(=O)C(CCCCN)NC(=O)C(N)CCCCN (stereo not drawn) [Compound 56] | >5 mg/mL | 0.5 µg/mL | 4 µg/mL | 0.5 µg/mL | 0.25 µg/mL | 2 µg/mL (≈ 0.942 µM) | within an order of magnitude of that of oritavancin 5 |  |  |  |  |
| CC(C)CC(C(=O)NC1C(=O)NC(CC(N)=O)C(=O)NC2C(=O)NC3C(=O)NC(C(=O)NC(C(=O)O)c4cc(O)cc(O)c4-c4cc3ccc4O)C(OC3CC(C)(N)C(O)C(C)O3)c3ccc(c(Cl)c3)Oc3cc2cc(c3OC2OC(CO)C(O)C(O)C2OC2CC(C)(NCc3ccc(-c4ccc(Cl)cc4)cc3)C(O)C(C)O2)Oc2ccc(cc2Cl)C1O)N(C)C(=O)CNC(=O)C(N)CCCCN (stereo not drawn) [Compound 61] | <0.5 mg/mL | 0.25 µg/mL | 0.25 µg/mL | 1 µg/mL | 0.5 µg/mL | 2 µg/mL (≈ 1.01 µM) | within an order of magnitude of that of oritavancin 5 |  |  |  |  |
| CNC(CC(C)C)C(=O)NC1C(=O)NC(CC(N)=O)C(=O)NC2C(=O)NC3C(=O)NC(C(=O)NC(C(=O)OCC(=O)NCCCNCCCN)c4cc(O)cc(O)c4-c4cc3ccc4O)C(OC3CC(C)(N)C(O)C(C)O3)c3ccc(c(Cl)c3)Oc3cc2cc(c3OC2OC(CO)C(O)C(O)C2OC2CC(C)(NCc3ccc(-c4ccc(Cl)cc4)cc3)C(O)C(C)O2)Oc2ccc(cc2Cl)C1O (stereo not drawn) [Compound 66] | >100 mg/mL | 0.25 µg/mL | 0.125 µg/mL | 1 µg/mL | 0.125 µg/mL | 2 µg/mL (≈ 1.02 µM) | within an order of magnitude of that of oritavancin 5 | within the same order of magnitude than oritavancin itself | 8.16 ± 0.49 Log10 CFU/thigh | 3.96 ± 1.74 Log10 CFU/thigh | 4.04 ± 0.51 Log10 CFU/thigh |
| CC(C)CC(C(=O)NC1C(=O)NC(CC(N)=O)C(=O)NC2C(=O)NC3C(=O)NC(C(=O)NC(C(=O)O)c4cc(O)cc(O)c4-c4cc3ccc4O)C(OC3CC(C)(N)C(O)C(C)O3)c3ccc(c(Cl)c3)Oc3cc2cc(c3OC2OC(CO)C(O)C(O)C2OC2CC(C)(NCc3ccc(-c4ccc(Cl)cc4)cc3)C(O)C(C)O2)Oc2ccc(cc2Cl)C1O)N(C)C(=O)OCc1ccc(OP(=O)(O)O)cc1 (stereo not drawn) [Compound 70] | 8 mg/mL (≈ 3950 µM) | 1 µg/mL | 32 µg/mL | 32 µg/mL | >32 µg/mL | 2 µg/mL (≈ 0.989 µM) | weaker activities |  |  |  |  |
